Tests used:
Type in all cases: cell-based
[1] = tested on: NCI-60 panel of human cancer cell lines; test: NCI in vitro human tumor cell line screening, full panel; conditions: full NCI panel
Description: (§1) on the full NCI-60 panel comprising cancer cell lines derived from nine human cancer cell types (leukemia, non-small-cell lung, colon, central nervous system, melanoma, ovarian, renal, prostate, and breast).[50]

[2] = tested on: A498; test: NCI-60 screen; conditions: Homo sapiens, Renal Cancer
Description: as §1, with “All the synthesized compounds 51–76 were tested at a 10^–5 M concentration for their antitumor activity on the” for “on the”

[3] = tested on: ACHN; test: NCI-60 screen; conditions: Homo sapiens, Renal Cancer
Description: as §1, with “All the synthesized compounds 51–76 were tested at a 10^–5 M concentration for their antitumor activity on the” for “on the”

[4] = tested on: CCRF-CEM; test: NCI-60 screen; conditions: Homo sapiens, Leukemia
Description: as §1, with “All the synthesized compounds 51–76 were tested at a 10^–5 M concentration for their antitumor activity on the” for “on the”

[5] = tested on: COLO 205; test: NCI-60 screen; conditions: Homo sapiens, Colon Cancer
Description: as §1, with “All the synthesized compounds 51–76 were tested at a 10^–5 M concentration for their antitumor activity on the” for “on the”

[6] = tested on: DU-145; test: NCI-60 screen; conditions: Homo sapiens, Prostate Cancer
Description: as §1, with “All the synthesized compounds 51–76 were tested at a 10^–5 M concentration for their antitumor activity on the” for “on the”

[7] = tested on: HCT-116; test: NCI-60 screen; conditions: Homo sapiens, Colon Cancer
Description: as §1, with “All the synthesized compounds 51–76 were tested at a 10^–5 M concentration for their antitumor activity on the” for “on the”

[8] = tested on: K-562; test: NCI-60 screen; conditions: Homo sapiens, K562; Leukemia
Description: as §1, with “All the synthesized compounds 51–76 were tested at a 10^–5 M concentration for their antitumor activity on the” for “on the”

[9] = tested on: M14; test: NCI-60 screen; conditions: Homo sapiens, Melanoma
Description: as §1, with “All the synthesized compounds 51–76 were tested at a 10^–5 M concentration for their antitumor activity on the” for “on the”

[10] = tested on: MCF7; test: NCI-60 screen; conditions: Homo sapiens, Breast Cancer
Description: as §1, with “All the synthesized compounds 51–76 were tested at a 10^–5 M concentration for their antitumor activity on the” for “on the”

[11] = tested on: MDA-MB-231/ATCC; test: NCI-60 screen; conditions: Homo sapiens, Breast Cancer
Description: as §1, with “All the synthesized compounds 51–76 were tested at a 10^–5 M concentration for their antitumor activity on the” for “on the”

[12] = tested on: MDA-MB-435; test: NCI-60 screen; conditions: Homo sapiens, Melanoma
Description: as §1, with “All the synthesized compounds 51–76 were tested at a 10^–5 M concentration for their antitumor activity on the” for “on the”

[13] = tested on: MOLT-4; test: NCI-60 screen; conditions: Homo sapiens, Leukemia
Description: as §1, with “All the synthesized compounds 51–76 were tested at a 10^–5 M concentration for their antitumor activity on the” for “on the”

[14] = tested on: NCI-H226; test: NCI-60 screen; conditions: Homo sapiens, Non-Small-Cell Lung Cancer
Description: as §1, with “All the synthesized compounds 51–76 were tested at a 10^–5 M concentration for their antitumor activity on the” for “on the”

[15] = tested on: NCI-H460; test: NCI-60 screen; conditions: Homo sapiens, Non-Small-Cell Lung Cancer
Description: as §1, with “All the synthesized compounds 51–76 were tested at a 10^–5 M concentration for their antitumor activity on the” for “on the”

[16] = tested on: NCI/ADR-RES; test: NCI-60 screen; conditions: Homo sapiens, Ovarian Cancer
Description: as §1, with “All the synthesized compounds 51–76 were tested at a 10^–5 M concentration for their antitumor activity on the” for “on the”

[17] = tested on: PC-3; test: NCI-60 screen; conditions: Homo sapiens, Prostate Cancer
Description: as §1, with “All the synthesized compounds 51–76 were tested at a 10^–5 M concentration for their antitumor activity on the” for “on the”

[18] = tested on: SF-268; test: NCI-60 screen; conditions: Homo sapiens, CNS Cancer
Description: as §1, with “All the synthesized compounds 51–76 were tested at a 10^–5 M concentration for their antitumor activity on the” for “on the”

[19] = tested on: SK-MEL-5; test: NCI-60 screen; conditions: Homo sapiens, Melanoma
Description: as §1, with “All the synthesized compounds 51–76 were tested at a 10^–5 M concentration for their antitumor activity on the” for “on the”

[20] = tested on: SNB-19; test: NCI-60 screen; conditions: Homo sapiens, CNS Cancer
Description: as §1, with “All the synthesized compounds 51–76 were tested at a 10^–5 M concentration for their antitumor activity on the” for “on the”

[21] = tested on: SR; test: NCI-60 screen; conditions: Homo sapiens, Leukemia
Description: as §1, with “All the synthesized compounds 51–76 were tested at a 10^–5 M concentration for their antitumor activity on the” for “on the”

[22] = tested on: UACC-62; test: NCI-60 screen; conditions: Homo sapiens, Melanoma
Description: as §1, with “All the synthesized compounds 51–76 were tested at a 10^–5 M concentration for their antitumor activity on the” for “on the”

[23] = tested on: KM12; test: NCI-60 screen; conditions: Homo sapiens, Colon Cancer
Description: as §1

[24] = tested on: LOX IMVI; test: NCI-60 screen; conditions: Homo sapiens, Melanoma
Description: as §1

[25] = tested on: NCI-H522; test: NCI-60 screen; conditions: Homo sapiens, Non-Small-Cell Lung Cancer
Description: as §1

[26] = tested on: OVCAR-3; test: NCI-60 screen; conditions: Homo sapiens, Ovarian Cancer
Description: as §1

[27] = tested on: HBL1 (ABC DLBCL); test: MTT cell proliferation, lymphoma; conditions: Homo sapiens, 72 h
Description: (§2) All compounds were further tested at the concentration of 1 μM on four cell lines derived from distinct lymphoma histotypes, plus two with secondary resistance to the PI3Kδ inhibitor idelalisib[51] or to the BTK inhibitor ibrutinib.[52] […] For comparison, the same experiments were conducted using compound 3, but the response to it was minimal, and thus it was not considered further.
(§3) Established human cell lines derived from germinal center B-cell (GCB) (SU-DHL-10), activated B-cell (ABC) (HBL1) diffuse large B-cell lymphoma (DLBCL), mantle cell lymphoma (MCL) (MINO), splenic marginal zone lymphoma (SMZL) (parental VL51, VL51 idelalisib resistant clone, VL51 ibrutinib resistant clone) were cultured in culture RPMI-1640 media supplemented with fetal bovine serum (10%), penicillin–streptomycin–neomycin (∼5,000 units of penicillin, 5 mg of streptomycinm and 10 mg of neomycin/mL, Sigma), and L-glutamine (1%). Vincristine sulfate was purchased from Sigma-Aldrich. Cell line identities were confirmed by CellCheck test (IDEXX, BioResearch, Ludwigsburg, Germany). All compounds were dissolved in dimethyl sulfoxide to obtain a stock concentration of 10 mM.
(§4) The antiproliferative activity of all compounds was assessed by using the 3-(4.5-dimethylthiazolyl-2)-2,5-diphenyltetrazolium bromide (MTT) test. Cells were seeded in 96-well plates (nontissue culture treated) at a density of 1 × 10^5 cells/mL and treated with a single concentration of 1 μM for 72 h. […] In this case, cells were treated in triplicate with serially diluted compounds in the appropriate tissue culture medium at a range of 40–10 000 nM. Cells were incubated for 72 h at 37 °C, 5% CO2. Wells containing medium only were included on each plate and served as blanks for absorbance readings. MTT (Sigma, Buchs, Switzerland) was prepared as a 5 mg/mL stock solution in phosphate buffered saline (PBS) and filter-sterilized. MTT solution (22 μL) was added to each well, and tissue culture plates were incubated at 37 °C for 4 h. Cells were then lysed with 25% sodium dodecyl sulfate lysis buffer, and absorbance was read at 570 nm using a Beckman Coulter-AD340 plate reader.

[28] = tested on: MINO (MCL); test: MTT cell proliferation, lymphoma; conditions: Homo sapiens, 72 h
Description: as §2, §3, §4

[29] = tested on: SU-DHL-10 (GCB DLBCL); test: MTT cell proliferation, lymphoma; conditions: Homo sapiens, SU-DHL10, 72 h
Description: as §2, §3, §4

[30] = tested on: VL51 (MZL); test: MTT cell proliferation, lymphoma; conditions: Homo sapiens, 72 h
Description: as §2, §3, §4

[31] = tested on: VL51 ibrutinib-resistant; test: MTT cell proliferation, lymphoma; conditions: Homo sapiens, 72 h, of untreated cells, read-out: Proliferating cells (%)
Description: as §2, §3, §4

[32] = tested on: VL51 idelalisib-resistant; test: MTT cell proliferation, lymphoma; conditions: Homo sapiens, 72 h, of untreated cells, read-out: Proliferating cells (%)
Description: as §2, §3, §4

[33] = 1 μM, of untreated cells, read-out: Proliferating cells (%)

`CCOC(=O)c1cc2c(n1Cc1cccc(OC)c1)-c1oncc1CCC2` [Compound 63, Ethyl 9-(3-Methoxybenzyl)-4,5,6,9-tetrahydropyrrolo[2′,3′:3,4]cyclohepta[1,2-d][1,2]oxazole-8-carboxylate] was tested, and the GI50 ([1]; Homo sapiens, five concentrations 10^–4–10^–8 M, read-out: GI50 (concentration that inhibits 50% net cell growth), range over panel) was 0.15 to 18.7 µM, the “MG_MID (mean graph midpoint)” value ([1]; arithmetic mean for all tested cancer cell lines) was 1.45 µM and the GI50 [2] was 440 nM. The GI50 [3] was 3.4 µM, the GI50 [4] was 2170 nM and the GI50 [5] was 580 nM. For the same compound, the GI50 [6] was 2180 nM, the GI50 [7] was 470 nM and the GI50 [8] was 390 nM. It also gave a GI50 [9] of 540 nM, a GI50 [10] of 370 nM and a GI50 [11] of 1840 nM. For the same compound, the GI50 [12] was 150 nM, the GI50 [13] was 2300 nM and the GI50 [14] was 21 µM. For the same compound, the GI50 [15] was 3.53 µM, the GI50 [16] was 430 nM and the GI50 [17] was 2350 nM. The GI50 [18] was 6.71 µM, the GI50 [19] was 750 nM and the GI50 [20] was 8.23 µM. It also gave a GI50 [21] of 280 nM, a GI50 [22] of 510 nM and a GI50 [23] of 460 nM. The GI50 [24] was 1750 nM, the GI50 [25] was 230 nM and the GI50 [26] was 300 nM. The activity at 1 µM [27, 33] was 117%, the IC50 ([27]; MTT) was over 5 µM and the activity at 1 µM [28, 33] was 86.3%. For the same compound, the IC50 ([28]; MTT) was 2600 nM, the activity at 1 µM [29, 33] was 51.5% and the IC50 ([29]; MTT) was 3000 nM. The activity at 1 µM [30, 33] was 66.7%, the IC50 ([30]; MTT) was 2300 nM and the activity at 1 µM [31] was 64.9%. For the same compound, the activity at 1 µM [32] was 62.3%.

— article PMC7901646, “Pyrrolo[2′,3′:3,4]cyclohepta[1,2-d][1,2]oxazoles, a New Class of Antimitotic Agents Active against Multiple Malignant Cell Types” (Journal of Medicinal Chemistry, 2020)
